Assay results as given in patent publication US20250114359A1, “METHODS FOR […] G[…]/OR HEXOKINASE” (UNIVERSITY OF SOUTH CAROLINA, priority 2023, published 2025).

Molecular target: Trypanosoma cruzi glucokinase (TcGlcK) (Trypanosoma cruzi, UniProt Q4E4E1)
Experiment: Determination of Ki values by type 1 and type 2 Dixon plots;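 further: compounds supplied as 10 mM DMSO stocks (100 µL format), with a non-inhibitory compound run alongside for comparison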
Format: biochemical
Procedure: The inhibition constant can be determined by development of a Dixon plot (either type 1 or type 2) according to standard practice, and as utilized herein refers to the inhibitor concentration at which half maximum inhibition is determined for a 100 μL/10 mM format in DMSO.
Determination of the Ki values for inhibitors was performed by creation of both type 1 and type 2 Dixon plots. The format included 100 μL/10 mM in DMSO.

Chain of Trypanosoma cruzi glucokinase (TcGlcK) (Q4E4E1 1-376): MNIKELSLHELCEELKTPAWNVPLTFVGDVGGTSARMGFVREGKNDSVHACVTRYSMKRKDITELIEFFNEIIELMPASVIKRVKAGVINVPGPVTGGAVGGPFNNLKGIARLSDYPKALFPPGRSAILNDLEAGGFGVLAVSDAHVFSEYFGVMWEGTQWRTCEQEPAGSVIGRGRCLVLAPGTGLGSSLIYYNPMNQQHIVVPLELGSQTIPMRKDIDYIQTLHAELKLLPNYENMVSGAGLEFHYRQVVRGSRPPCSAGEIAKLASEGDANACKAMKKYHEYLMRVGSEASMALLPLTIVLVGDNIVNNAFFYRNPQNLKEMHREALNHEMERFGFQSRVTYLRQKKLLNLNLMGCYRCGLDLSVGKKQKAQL

| SMILES | Ki | inhibition (Dixon plots) (type 1 and type 2 Dixon plots, comparison compound) |
| --- | --- | --- |
| Cc1cc2c(c(O)c1-c1c(C)cc3c(c1O)/C(=C/NNC(=O)c1ccncc1)C(=O)C(O)=C3C(C)C)/C(=C/NNC(=O)c1ccncc1)C(=O)C(O)=C2C(C)C (atropisomer, axis not shown) [Inhibitor 26] | 213 µM |  |
| Cc1cc2c(C(C)C)c(O)c(O)c(/C=N/CC34CC5CC(C)(CC(C)(C5)C3)C4)c2c(O)c1-c1c(C)cc2c(C(C)C)c(O)c(O)c(/C=N/C34CC5CC(C)(CC(C)(C5)C3)C4)c2c1O [Inhibitor 50] | 51.3 µM |  |
| Cc1cc2c(C(C)C)c(O)c(O)c(/C=N/c3ccc(C(O)C(O)CO)cc3)c2c(O)c1-c1c(C)cc2c(C(C)C)c(O)c(O)c(/C=N/c3ccc(C(O)C(O)CO)cc3)c2c1O (stereo not drawn) [Inhibitor 48] | 274 µM |  |
| Cc1cc2c(c(O)c1-c1c(C)cc3c(c1O)/C(=C/Nc1c(C)n(C)n(-c4ccccc4)c1=O)C(=O)C(O)=C3C(C)C)/C(=C/Nc1c(C)n(C)n(-c3ccccc3)c1=O)C(=O)C(O)=C2C(C)C (atropisomer, axis not shown) [Inhibitor 21] | 9.5 µM |  |
| Cc1cc2c(C(C)C)c(O)c(O)c(/C=N/c3cccc(N4CCCC4=O)c3)c2c(O)c1-c1c(C)cc2c(C(C)C)c(O)c(O)c(/C=N/c3cccc(N4CCCC4=O)c3)c2c1O (atropisomer, axis not shown) [Inhibitor 87] | 17.6 µM |  |
| Cc1cc2c(C(C)C)c(O)c(O)c(/C=N/NCc3ccccc3Cl)c2c(O)c1-c1c(C)cc2c(C(C)C)c(O)c(O)c(/C=N/NCc3ccccc3Cl)c2c1O [Inhibitor 8] | 56.3 µM |  |
| COc1c(C)cc(/N=C/c2c(O)c(O)c(C(C)C)c3cc(C)c(-c4c(C)cc5c(C(C)C)c(O)c(O)c(/C=N/c6cc(C)c(OC)c(C)c6)c5c4O)c(O)c23)cc1C (atropisomer, axis not shown) [Inhibitor 49] | 16.1 µM |  |
| Cc1cc2c(C(C)C)c(O)c(O)c(/C=N/CCOc3ccc(C4CCCCC4)cc3)c2c(O)c1-c1c(C)cc2c(C(C)C)c(O)c(O)c(/C=N/CCOc3ccc(C4CCCCC4)cc3)c2c1O (atropisomer, axis not shown) [Inhibitor 80] | 11.8 µM |  |
| Cc1cc2c(C(C)C)c(O)c(O)c(/C=N/Nc3nnnn3-c3ccccc3)c2c(O)c1-c1c(C)cc2c(C(C)C)c(O)c(O)c(/C=N/Nc3nnnn3-c3ccccc3)c2c1O (atropisomer, axis not shown) [Inhibitor 60] | 53.3 µM |  |
| Cc1cc2c(c(O)c1-c1c(C)cc3c(c1O)/C(=C\Nc1c(O)cc(S(=O)(=O)O)c4ccccc14)C(=O)C(O)=C3C(C)C)/C(=C/Nc1c(O)cc(S(=O)(=O)O)c3ccccc13)C(=O)C(O)=C2C(C)C [Inhibitor 29] | 9.6 µM |  |
| COc1ccc2ccccc2c1/C=C1\SC(=S)NC1=O [Inhibitor 69] | 12.9 µM |  |
| Cc1cc(C=O)c(O)c(C=O)c1 [Inhibitor 44] | 99.1 µM |  |
| Cc1cc2c(c(O)c1-c1c(C)cc3c(c1O)/C(=C/NCc1cccnc1)C(=O)C(O)=C3C(C)C)/C(=C/NCc1cccnc1)C(=O)C(O)=C2C(C)C (atropisomer, axis not shown) [Inhibitor 74] | 123 µM |  |
| Cc1cc2c(C(C)C)c(O)c(O)c(/C=N/CCOc3ccc4c(c3)OCC4)c2c(O)c1-c1c(C)cc2c(C(C)C)c(O)c(O)c(/C=N/CCOc3ccc4c(c3)OCO4)c2c1O (atropisomer, axis not shown) [Inhibitor 41] | 328 µM |  |
| Cc1cc2c(C(C)C)c(O)c(O)c(/C=N/Nc3cccc(Cl)n3)c2c(O)c1-c1c(C)cc2c(C(C)C)c(O)c(O)c(/C=N/Nc3cccc(Cl)n3)c2c1O [Inhibitor 9] | 11 µM |  |
| Cc1cc2c(c(O)c1-c1c(C)cc3c(c1O)/C(=C/Nc1ccccc1O)C(=O)C(O)=C3C(C)C)/C(=C/Nc1ccccc1O)C(=O)C(O)=C2C(C)C (atropisomer, axis not shown) [Inhibitor 14] | 468 µM |  |
| COc1ccc(CC(=O)N/N=C/c2c(O)c(O)c(C(C)C)c3cc(C)c(-c4c(C)cc5c(C(C)C)c(O)c(O)c(/C=N/NC(=O)Cc6ccc(OC)c(OC)c6)c5c4O)c(O)c23)cc1OC (atropisomer, axis not shown) [Inhibitor 55] | 41.6 µM |  |
| Cc1cc2c(c(O)c1-c1c(C)cc3c(c1O)/C(=C/Nc1cccc(C(=C4C=CC(=N)C=C4)c4ccc(N)cc4)c1)C(=O)C(O)=C3C(C)C)/C(=C/Nc1cccc(C(=C3C=CC(=N)C=C3)c3ccc(N)cc3)c1)C(=O)C(O)=C2C(C)C [Inhibitor 30] | 3.9 µM |  |
| Cc1cc2c(c(O)c1-c1c(C)cc3c(c1O)/C(=C/Nc1ccc(S(=O)(=O)Nc4nccs4)cc1)C(=O)C(O)=C3C(C)C)/C(=C/Nc1ccc(S(=O)(=O)Nc3nccs3)cc1)C(=O)C(O)=C2C(C)C (atropisomer, axis not shown) [Inhibitor 23] | 32.3 µM |  |
| Cc1ccc(O)c(/N=C/c2c(O)c(O)c(C(C)C)c3cc(C)c(-c4c(C)cc5c(C(C)C)c(O)c(O)c(/C=N/c6cc(C)ccc6O)c5c4O)c(O)c23)c1 (atropisomer, axis not shown) [Inhibitor 54] | 3.02 µM |  |
| Cc1cc2c(c(O)c1-c1c(C)cc3c(c1O)/C(=C/NC(C)CCc1ccco1)C(=O)C(O)=C3C(C)C)/C(=C/NC(C)CCc1ccco1)C(=O)C(O)=C2C(C)C (stereo not drawn) [Inhibitor 73] | 2.03 µM |  |

| SMILES | Ki | inhibition (Dixon plots) (type 1 and type 2 Dixon plots, comparison compound) |
| --- | --- | --- |
| COc1ccc(OCC/N=C/c2c(O)c(O)c(C(C)C)c3cc(C)c(-c4c(C)cc5c(C(C)C)c(O)c(O)c(/C=N/CCOc6ccc(OC)cc6)c5c4O)c(O)c23)cc1 (atropisomer, axis not shown) [Inhibitor 40] | 29.4 µM |  |
| Cc1cc2c(C(C)C)c(O)c(O)c(/C=N/n3c(=O)[nH][nH]c3=O)c2c(O)c1-c1c(C)cc2c(C(C)C)c(O)c(O)c(/C=N/n3c(=O)[nH][nH]c3=O)c2c1O (atropisomer, axis not shown) [Inhibitor 33] | 122 µM |  |
| O=C1NC(=S)S/C1=C/c1ccc(O)cc1 [Inhibitor 66] | 14.7 µM |  |
| Cc1cc2c(c(O)c1-c1c(C)cc3c(c1O)/C(=C/NCSN)C(=O)C(O)=C3C(C)C)/C(=C/NCSN)C(=O)C(O)=C2C(C)C (atropisomer, axis not shown) [Inhibitor 85] | 30.1 µM |  |
| COc1cc(/N=C/c2c(O)c(O)c(C(C)C)c3cc(C)c(-c4c(C)cc5c(C(C)C)c(O)c(O)c(/C=N/c6ccc(C)c(OC)c6)c5c4O)c(O)c23)ccc1C (atropisomer, axis not shown) [Inhibitor 47] | 29.1 µM |  |
| Cc1cc2c(C(C)C)c(O)c(O)c(/C=N/NC(=O)c3ccoc3C)c2c(O)c1-c1c(C)cc2c(C(C)C)c(O)c(O)c(/C=N/NC(=O)c3ccoc3C)c2c1O (atropisomer, axis not shown) [Inhibitor 39] | 9.16 µM |  |
| Cc1cc2c(C(C)C)c(O)c(O)c(/C=N/NC(N)=S)c2c(O)c1-c1c(O)cc2c(/C=N/NC(N)=S)c(O)c(O)c(C(C)C)c2c1C [comparative compound, reference compound] |  | does not exhibit inhibition |
| Cc1cc2c(c(O)c1-c1c(C)cc3c(c1O)/C(=C\Nc1ccc(S(=O)(=O)NC(=N)N)cc1)C(=O)C(O)=C3C(C)C)/C(=C/Nc1ccc(S(=O)(=O)NC(=N)N)cc1)C(=O)C(O)=C2C(C)C [Inhibitor 16] | 1.03 µM |  |
| Cc1cc(OCC/N=C/c2c(O)c(O)c(C(C)C)c3cc(C)c(-c4c(C)cc5c(C(C)C)c(O)c(O)c(/C=N/CCOc6cc(C)c(Cl)c(C)c6Cl)c5c4O)c(O)c23)c(Cl)c(C)c1Cl (atropisomer, axis not shown) [Inhibitor 79] | 127 µM |  |
| CCOC(=O)Nc1ccc(/N=C/c2c(O)c(O)c(C(C)C)c3cc(C)c(-c4c(C)cc5c(C(C)C)c(O)c(O)c(/C=N/c6ccc(NC(=O)OCC)cc6)c5c4O)c(O)c23)cc1 [Inhibitor 12] | 4710 µM |  |
| COc1cc(NS(=O)(=O)c2ccc(N/C=C3\C(=O)C(O)=C(C(C)C)c4cc(C)c(-c5c(C)cc6c(c5O)/C(=C/Nc5ccc(S(=O)(=O)Nc7cc(OC)nc(OC)n7)cc5)C(=O)C(O)=C6C(C)C)c(O)c43)cc2)nc(OC)n1 (atropisomer, axis not shown) [Inhibitor 20] | 11.2 µM |  |
| CC1=C(C2=C(C)C(=O)c3c(c(C=O)c(O)c(O)c3C(C)C)C2=O)C(=O)c2c(C=O)c(O)c(O)c(C(C)C)c2C1=O [Inhibitor 31] | 960 µM |  |
| Cc1cc(-c2ccc(N/C=C3\C(=O)C(O)=C(C(C)C)c4cc(C)c(-c5c(C)cc6c(c5O)/C(=C/Nc5ccc(-c7ccc(N)c(C)c7)cc5C)C(=O)C(O)=C6C(C)C)c(O)c43)c(C)c2)ccc1N (atropisomer, axis not shown) [Inhibitor 17] | 532 µM |  |
| Cc1cc2c(C(C)C)c(O)c(O)c(/C=N/CCOc3ccccc3F)c2c(O)c1-c1c(C)cc2c(C(C)C)c(O)c(O)c(/C=N/CCOc3ccccc3F)c2c1O (atropisomer, axis not shown) [Inhibitor 76] | 105 µM |  |
| CC(=O)c1ccc(N/C=C2\C(=O)C(O)=C(C(C)C)c3cc(C)c(-c4c(C)cc5c(c4O)/C(=C/Nc4ccc(C(C)=O)cc4)C(=O)C(O)=C5C(C)C)c(O)c32)cc1 (atropisomer, axis not shown) [Inhibitor 19] | 10.4 µM |  |
| Cc1cc2c(c(O)c1-c1c(C)cc3c(c1O)/C(=C/Nc1ccc(S(N)(=O)=O)cc1)C(=O)C(O)=C3C(C)C)/C(=C/Nc1ccc(S(N)(=O)=O)cc1)C(=O)C(O)=C2C(C)C (atropisomer, axis not shown) [Inhibitor 25] | 74.3 µM |  |
| CCCCCC1CCC(=O)N1CCN/C=C1\C(=O)C(O)=C(C(C)C)c2cc(C)c(-c3c(C)cc4c(c3O)/C(=C/NCCN3C(=O)CCC3CCCCC)C(=O)C(O)=C4C(C)C)c(O)c21 (stereo not drawn) [Inhibitor 75] | 560 µM |  |
| Cc1cc2c(C(C)C)c(O)c(O)c(/C=N/c3ccc4c(c3)CCN4S(C)(=O)=O)c2c(O)c1-c1c(C)cc2c(C(C)C)c(O)c(O)c(/C=N/c3ccc4c(c3)CCN4S(C)(=O)=O)c2c1O (atropisomer, axis not shown) [Inhibitor 51] | 0.8 µM |  |
| Cc1cc2c(c(O)c1-c1c(C)cc3c(c1O)/C(=C/Nc1ccccc1C(=O)O)C(=O)C(O)=C3C(C)C)/C(=C/Nc1ccccc1C(=O)O)C(=O)C(O)=C2C(C)C (atropisomer, axis not shown) [Inhibitor 15] | 1.2 µM |  |
| Cc1cc2c(c(O)c1-c1c(C)cc3c(c1O)/C(=C/Nc1ccc(N=Nc4ccccc4)cc1)C(=O)C(O)=C3C(C)C)/C(=C/Nc1ccc(N=Nc3ccccc3)cc1)C(=O)C(O)=C2C(C)C (atropisomer, axis not shown) [Inhibitor 18] | 45.5 µM |  |
| Cc1cc(C(=O)N/N=C/c2c(O)c(O)c(C(C)C)c3cc(C)c(-c4c(C)cc5c(C(C)C)c(O)c(O)c(/C=N/NC(=O)c6cc(C)[nH]n6)c5c4O)c(O)c23)n[nH]1 [Inhibitor 4] | 19.1 µM |  |
